One compound from publication PMC11211441, “Distributable, metabolic PET reporting of tuberculosis” (Nature Communications, 2024) can be followed below.

Data set [1] in a line: Human microsomal stability assay. The settings on record: human liver microsomes, 3 µM, 80 min. The method, then:
Microsomal stability assay was carried out as described previously. In brief, 10 x reduced nicotinamide adenine dinucleotide phosphate (NADPH)-regenerating system was freshly prepared by dissolving 37.2 mg glucose-6-phosphate (Sigma) in 1 mL of 100 mM potassium phosphate buffer, 39.8 mg nicotinamide adenine dinucleotide phosphate (NADP, Sigma) in 1 mL of potassium phosphate buffer, 11.5 U glucose-6-phosphate dehydrogenase (Thermo) in 1 mL of potassium phosphate buffer and 26.8 mg MgCl2.6H2O (Sigma) in 1 mL of distilled water. All these solutions were combined and kept on ice. […] After 5 min, 18 µL of NADPH-regenerating system was added to initiate reaction. Immediately after adding the NADPH regenerating system, 50 µL, 0 min time point sample was taken and quenched with equal volume of ice-cold methanol. Similarly further samples were taken at 10 min, 30 min, 60 min, 90 min and 120 min. Samples were centrifuged at 10,000 g at 4 °C for 10 min. […] After incubating the reaction mix at 37 °C for 5 min, 36 µL of NADPH regenerating system was added to initiate the reaction. 50 µL samples were taken at 0 min, 2.5 min, 5 min, 10 min, 20 min, 40 min and 80 min and reactions were quenched by adding equal amount of ice-cold acetonitrile and kept on ice.

A short description of data set [2]: Single and repeat iv dose toxicity study in dogs. The data set is classed as in vivo. Particulars: beagle dogs, 100 x or 1000 x expected human dose iv. The protocol:
For toxicity studies, 2 g of [^19F]-FDT was synthesized and tested for quality control as described above and in Figs.39 and shipped to a contract research organization. Toxicity studies were conducted by SRI International, Biosciences Division, Menlo Park, CA, USA in rats and dogs. The experimental design is described in Tables S10, S11, respectively.
To assess the toxicity associated with [^19F]-FDT in dogs, male and female Beagle dogs (5/sex) were given a daily iv injection of [^19F]-FDT at 0.4 mg/kg/day (100 times of human dose; Group 2) for 7 consecutive days, or a single iv administration of [^19F]-FDT at 0.4 or 4 mg/kg (100 and 1000 times of human dose in Groups 3 and 4, respectively) on Day 7. A control group (5/sex; Group 1), was given 7 days of vehicle (HEPES buffer, pH 7.5, 50 mM with MgCl2 7.5 mM), at an equivalent dose volume of 0.25 ml/kg on Days 1–7. Animals were sacrificed on Day 9 (3/sex/ group; main groups) or Day 21 (2/sex/group; recovery groups). The single dose administration for Groups 3–4 were initiated on Day 7 so that clinical pathology and necropsy occurred on the same calendar day for all Groups (1–4), thus allowing for sharing of vehicle control data for analysis of clinical pathology and necropsy results between the two dose regimens.

As to `OC[C@H]1O[C@H](O[C@H]2O[C@H](CO)[C@@H](O)[C@H](O)[C@H]2F)[C@H](O)[C@@H](O)[C@@H]1O` [[^19F]FDT], in data set [1], the “% remaining” value is on record as more than 50%. In addition, in data set [2], the “adverse findings in any parameters measured” value was “no adverse findings”.
